In assay [1] the test system is hamsters fed a high cholesterol diet. The assay can be described thus: Measurement of lipid lowering effect in hamsters fed a high cholesterol diet. Format: in vivo, Male Golden Syrian hamsters. To be noted: Mesocricetus auratus, po, 168 h, gavage once daily, 7 days. An outline of the steps:
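Male Golden Syrian hamsters (6/group) on 0.5% cholesterol diet, dosed by gavage once daily in corn oil at 0.01 to 10 mg/kg; serum and liver sampled 4 h after last dose. TC, TG and LDL-C measured enzymatically; effects expressed as % suppression versus control and normal-diet groups.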

The next assay has as its system Caco-2 cells. Nature of the assay: Cholesterol absorption inhibition assay (in vitro), [14C] cholesterol mixed micelles. Format: cell-based. To be noted: Homo sapiens, 24 hours, read-out: cholesterol absorption inhibitory activity; for inhibition at 12.5 µM: concentration of 12.5 μM; for inhibition at 10 µM: concentration of 10 μM. How it is done: This assay measures cholesterol absorption inhibitory activity by adding mixed micelles containing [^14C] cholesterol to cells and measuring cholesterol taken in the cells as oleic acid cholesteryl ester. The assay is conducted after Caco-2 cells are seeded on multi-well plates and cultured (culture medium: DMEM containing 10% fetal bovine serum, 1% non-essential amino acids, 1% penicillin, and 1% streptomycin) for 2 weeks. To each well, the micelle solution (in an amount required to provide the following final concentrations: 600 μM of sodium oleate, 50 μM of phosphatidyl choline, 5 mM of sodium taurocholate, 2.5 μM of cholesterol, and 2.5 μM of [^14C] cholesterol) and a test compound solution (in an amount required to provide the final concentration of 0.5 to 25 μM) or a solvent as a control are added, and incubation is started at 37° C. 24 hours later, the culture medium is removed, and the lipid component is extracted with hexane/2-propanol (3:2, v/v) and applied onto thin-layer silica gel plates. After drying, each plate is eluted with a mixture of hexane, diethyl ether, and acetic acid in a ratio of 83:16:1. The plates are photoexposed on imaging plates and analyzed using BAS-2500 (FUJIFILM). The amounts of light exposure of the areas corresponding to the cholesteryl ester are calculated. Background is measured using a blank space of the plate. Inhibition rates are calculated using values obtained by subtracting the background values from both values of the control and the test sample, respectively, in accordance with the following equation. A test value is calculated as a percentage (%) with respect to the control.
In the Equation 1, A is the control group, BG is a background, and B is the test compound.
The following results were obtained from the measurement by this method on cholesterol absorption inhibitory activity of the compounds of the present invention. The following results were obtained by the evaluation using concentrations of 10 μM and/or 12.5 μM.

Setting [2] is: read-out: liver TC lowering effect (suppression rate of an increase in liver TC concentration).
Where [3] appears, read: read-out: serum LDL-C lowering effect (suppression rate of an increase in serum LDL-C concentration).
The mark [4] stands for this setting: read-out: serum TG lowering effect (serum TG lowering rate).
[5] abbreviates: read-out: serum TC lowering effect (suppression rate of an increase in serum TC concentration).

Read-outs that look alike come from different tables or passages of the source.

Turning to `O=C1[C@H](SC[C@H](O)c2ccc(Cl)cc2)[C@@H](c2ccc(O)cc2)N1c1ccc(-c2ccc(Cl)nc2)cc1` [Example 94, (3R,4R)-3-[(2R)-2-(4-chlorophenyl)-2-hydroxyethylthio]-1-[4-(6-chloropyridin-3-yl)phenyl]-4-(4-hydroxyphenyl)azetidin-2-one], the inhibition in vivo at 0.1 mg/kg in assay [1] (setting [2]) was at least 50%. In the assay on Caco-2 cells, the inhibition at 12.5 µM was at least 60%.

Take `O=C1[C@H](SC[C@H](O)c2ccc(F)cc2)[C@@H](c2ccc(O)cc2)N1c1ccc(-c2ccncc2Cl)cc1` [Example 12, (3R,4R)-3-[(2R)-2-(4-fluorophenyl)-2-hydroxyethylthio]-1-[4-(3-chloropyridin-4-yl)phenyl]-4-(4-hydroxyphenyl)azetidin-2-one]: the inhibition in vivo at 0.1 mg/kg in assay [1] (setting [3]) was at least 50%. The inhibition at 10 µM in the assay with Caco-2 cells was at least 50%.

For the compound `COc1ccncc1-c1ccc(N2C(=O)[C@H](SC[C@H](O)c3ccc(Cl)cc3)[C@H]2c2ccc(O)cc2)cc1` [Example 61, (3R,4R)-3-[(2R)-2-(4-chlorophenyl)-2-hydroxyethylthio]-4-(4-hydroxyphenyl)-1-[4-(4-methoxypyridin-3-yl)phenyl]azetidin-2-one], the inhibition in vivo at 0.1 mg/kg in assay [1] (setting [3]) is at least 50%. In addition, the inhibition at 12.5 µM in the assay with Caco-2 cells is at least 60%.

Turning to `CC(=O)c1cncc(-c2ccc(N3C(=O)[C@H](SC[C@H](O)c4ccc(F)cc4)[C@H]3c3ccc(O)cc3)cc2)c1` [Example 48, (3R,4R)-3-[(2R)-2-(4-fluorophenyl)-2-hydroxyethylthio]-1-[4-(5-acetylpyridin-3-yl)phenyl]-4-(4-hydroxyphenyl)azetidin-2-one], the inhibition in vivo at 0.1 mg/kg in assay [1] (setting [4]) is at least 20%. Besides, in the assay with Caco-2 cells, the inhibition at 10 µM was at least 50% and the inhibition at 12.5 µM is at least 60%.

Consider `COc1ccncc1-c1ccc(N2C(=O)[C@H](SC[C@H](O)c3ccc(F)cc3)[C@H]2c2ccc(O)cc2)cc1` [Example 16, (3R,4R)-3-[(2R)-2-(4-fluorophenyl)-2-hydroxyethylthio]-4-(4-hydroxyphenyl)-1-[4-(4-methoxypyridin-3-yl)phenyl]azetidin-2-one], for which the inhibition in vivo at 0.01 mg/kg in assay [1] (setting [2]) is at least 30%. For the same compound, the inhibition in vivo at 0.1 mg/kg in assay [1] (setting [5]) is at least 50%. For the same compound, in the assay on Caco-2 cells, the inhibition at 10 µM was at least 50% and the inhibition at 12.5 µM is at least 60%.

As to `Cc1ccc(-c2ccc(N3C(=O)[C@H](SC[C@H](O)c4ccc(F)cc4)[C@H]3c3ccc(O)cc3)cc2)cn1` [Example 20, (3R,4R)-3-[(2R)-2-(4-fluorophenyl)-2-hydroxyethylthio]-4-(4-hydroxyphenyl)-1-[4-(6-methylpyridin-3-yl)phenyl]azetidin-2-one], the inhibition in vivo at 0.01 mg/kg in assay [1] (setting [2]) was at least 30%. In addition, the inhibition in vivo at 0.01 mg/kg in assay [1] (setting [3]) is at least 30%. In the assay on Caco-2 cells, the inhibition at 10 µM was at least 50% and the inhibition at 12.5 µM was at least 60%.

For the compound `Cc1ccncc1-c1ccc(N2C(=O)[C@H](SC[C@H](O)c3ccc(F)cc3)[C@H]2c2ccc(O)cc2)cc1` [Example 8, (3R,4R)-3-[(2R)-2-(4-fluorophenyl)-2-hydroxyethylthio]-4-(4-hydroxyphenyl)-1-[4-(4-methylpyridin-3-yl)phenyl]azetidin-2-one], in assay [1] (setting [4]), the inhibition in vivo at 0.1 mg/kg is at least 20%. The inhibition at 10 µM in the assay with Caco-2 cells was at least 50%.

Take `COc1cc(O)ccc1[C@@H]1[C@@H](SC[C@H](O)c2ccc(F)cc2)C(=O)N1c1ccc(-c2cccnc2)cc1` [Example 24, (3R,4R)-3-[(2R)-2-(4-fluorophenyl)-2-hydroxyethylthio]-4-(4-hydroxy-2-methoxyphenyl)-1-[4-(pyridin-3-yl)phenyl]azetidin-2-one]: the inhibition in vivo at 0.1 mg/kg in assay [1] (setting [2]) and in assay [1] (setting [5]) was at least 50% each time. The inhibition at 10 µM with Caco-2 cells was at least 50%.

For the compound `N#Cc1cncc(-c2ccc(N3C(=O)[C@H](SC[C@H](O)c4ccc(Cl)cc4)[C@H]3c3ccc(O)cc3)cc2)c1` [Example 58, 5-(4-{(3R,4R)-3-[(2R)-2-(4-chlorophenyl)-2-hydroxyethylthio]-4-(4-hydroxyphenyl)-2-oxoazetidinyl}phenyl)pyridine-3-carbonitrile], in assay [1] (setting [2]), the inhibition in vivo at 0.01 mg/kg is at least 30%. In addition, the inhibition in vivo at 0.01 mg/kg in assay [1] (setting [3]) was at least 30%. Besides, the inhibition in vivo at 0.1 mg/kg in assay [1] (setting [4]) was at least 20%. Further, in the assay with Caco-2 cells, the inhibition at 10 µM is at least 50% and the inhibition at 12.5 µM was at least 60%.

For `O=C1[C@H](SC[C@H](O)c2ccc(Cl)cc2)[C@@H](c2ccc(O)cc2)N1c1ccc(-c2cccnc2)cc1` [Example 32, (3R,4R)-3-[(2R)-2-(4-chlorophenyl)-2-hydroxyethylthio]-4-(4-hydroxyphenyl)-1-[4-(pyridin-3-yl)phenyl]azetidin-2-one], the inhibition in vivo at 0.01 mg/kg in assay [1] (setting [3]) was at least 30%. Further, the inhibition in vivo at 0.1 mg/kg in assay [1] (setting [4]) was at least 20%. Further, in the assay on Caco-2 cells, the inhibition at 10 µM was at least 50% and the inhibition at 12.5 µM was at least 60%.

On to `N#Cc1ccc(-c2ccc(N3C(=O)[C@H](SC[C@H](O)c4ccc(F)cc4)[C@H]3c3ccc(O)cc3)cc2)cn1` [Example 9, 5-(4-{(3R,4R)-3-[(2R)-2-(4-fluorophenyl)-2-hydroxyethylthio]-4-(4-hydroxyphenyl)-2-oxoazetidinyl}phenyl)pyridine-2-carbonitrile], for which the inhibition in vivo at 0.1 mg/kg in assay [1] (setting [4]) is at least 20%. In addition, the inhibition at 10 µM with Caco-2 cells was at least 50%.

As to `COc1ncccc1-c1ccc(N2C(=O)[C@H](SC[C@H](O)c3ccc(F)cc3)[C@H]2c2ccc(O)cc2)cc1` [Example 6, (3R,4R)-3-[(2R)-2-(4-fluorophenyl)-2-hydroxyethylthio]-4-(4-hydroxyphenyl)-1-[4-(2-methoxypyridin-3-yl)phenyl]azetidin-2-one], the inhibition in vivo at 0.1 mg/kg in assay [1] (setting [5]) was at least 50%; in assay [1] (setting [4]), at least 20%. In addition, in the assay with Caco-2 cells, the inhibition at 12.5 µM was at least 60%.

`O=C1[C@H](SC[C@H](O)c2ccc(F)cc2)[C@@H](c2ccc(O)cc2)N1c1ccc(-c2cncc(Cl)c2)cc1` [Example 56, (3R,4R)-3-[(2R)-2-(4-fluorophenyl)-2-hydroxyethylthio]-1-[4-(5-chloropyridin-3-yl)phenyl]-4-(4-hydroxyphenyl)azetidin-2-one]: the inhibition in vivo at 0.01 mg/kg in assay [1] (setting [2]), in assay [1] (setting [3]) and in assay [1] (setting [5]) was at least 30% in each case. Further, the inhibition in vivo at 0.1 mg/kg in assay [1] (setting [2]) is at least 50%. Also, the inhibition at 10 µM with Caco-2 cells is at least 50%.

For `O=C1[C@H](SC[C@H](O)c2ccc(F)cc2)[C@@H](c2ccc(O)cc2)N1c1ccc(-c2ncc(F)cc2F)cc1` [Example 34, (3R,4R)-3-[(2R)-2-(4-fluorophenyl)-2-hydroxyethylthio]-1-[4-(3,5-difluoropyridin-2-yl)phenyl]-4-(4-hydroxyphenyl)azetidin-2-one], the inhibition in vivo at 0.1 mg/kg in assay [1] (setting [4]) was at least 20%. Also, in the assay on Caco-2 cells, the inhibition at 10 µM is at least 50%.

Consider `O=C1[C@H](SCCc2ccc(F)cc2)[C@@H](c2ccc(O)cc2)N1c1ccc(-c2cccnc2)cc1` [Example 5, (3R,4R)-3-[2-(4-fluorophenyl)ethylthio]-4-(4-hydroxyphenyl)-1-[4-(pyridin-3-yl)phenyl]azetidin-2-one], for which, in assay [1] (setting [4]), the inhibition in vivo at 0.1 mg/kg is at least 20%. In addition, in the assay on Caco-2 cells, the inhibition at 10 µM is at least 50% and the inhibition at 12.5 µM is at least 60%.

`Cc1ccc([C@@H](O)CS[C@H]2C(=O)N(c3ccc(-c4cccnc4)cc3)[C@@H]2c2ccc(O)cc2)cc1` [Example 45, (3R,4R)-3-[(2R)-2-hydroxy-2-(4-methylphenyl)ethylthio]-4-(4-hydroxyphenyl)-1-[4-(pyridin-3-yl)phenyl]azetidin-2-one]: the inhibition in vivo at 0.1 mg/kg in assay [1] (setting [3]) is at least 50%. The inhibition in vivo at 0.1 mg/kg in assay [1] (setting [5]) is at least 50%. Also, in the assay with Caco-2 cells, the inhibition at 10 µM is at least 50% and the inhibition at 12.5 µM was at least 60%.

In the case of `COc1cc(N2C(=O)[C@H](SC[C@H](O)c3ccc(F)cc3)[C@H]2c2ccc(O)cc2)ccc1-c1cccnc1` [Example 52, (3R,4R)-3-[(2R)-2-(4-fluorophenyl)-2-hydroxyethylthio]-4-(4-hydroxyphenyl)-1-[3-methoxy-4-(pyridin-3-yl)phenyl]azetidin-2-one], the inhibition in vivo at 0.1 mg/kg in assay [1] (setting [4]) is at least 20%. Moreover, the inhibition at 10 µM with Caco-2 cells was at least 50%.

Source of the values: US20100125059A1, “1-BIARYLAZETIDINONE DERIVATIVE” (Teijin Pharma Limited, priority 2007, published 2010).
